Measured values taken from patent US20200399238A1, “THERAPEUTIC AURONES” (MIDDLE TENNESSEE STATE UNIVERSITY, priority 2016, published 2020).
Where two headings read alike, the source gives them in different places.

How the values were obtained:
[1] = test system: Trypanosoma brucei brucei 427 cells; assay: T. brucei culture and assay (PrestoBlue); type: cell-based; conditions: for IC50: mean of 2(+) independent trials, read-out: IC50 T. brucei
[2] = test system: rat skeletal muscle cell line, L6; assay: cells; type: cell-based
[3] = test system: Trypanosoma cruzi Tulahuen cells expressing beta-galactosidase; assay: T. cruzi intracellular assay (beta-galactosidase, L6 host cells); conditions: for Selectivity L6/Tc-I: Table 3B; for Selectivity L6/Tc-I / Selectivity L6/TC-I: estimated from highest L6 dose tested where no L6 IC50; for IC50: Trypanosoma cruzi, TULAHUEN; for Selectivity L6/TC-I: Table 3A
[4] = test system: Leishmania amazonensis promastigotes expressing beta-lactamase; assay: microbe, parasite or virus in culture; type: cell-based; conditions: for IC50: Leishmania amazonensis
[5] = Table 2, L6 IC50 / T. brucei IC50
[6] = Table 3B, estimated from highest L6 dose tested where no L6 IC50
[7] = Rattus norvegicus, Table 1, read-out: IC50 Toxicity (L6)
[8] = Rattus norvegicus, Table 3B, weighted means of two or more independent trials, read-out: IC50 L6
[9] = Table 2, L6 mammalian cells, read-out: IC50 Toxicity (L6)
[10] = Table 1, intracellular T. cruzi IC50
[11] = Table 2, L6 IC50 / T. cruzi IC50 (intracellular assay)
[12] = read-out: IC50 T. cruzi, Table 1, intracellular assay, mean of 2(+) trials (^c one trial)
[13] = read-out: IC50 T. cruzi, Table 2, intracellular assay, mean of 2(+) independent trials
[14] = read-out: IC50 TC-I, Table 3B, weighted means of two or more independent trials
[15] = Table 2, L6 IC50 / L. amazonensis IC50
[16] = Rattus norvegicus, Table 3A, weighted means of two or more independent trials, read-out: IC50 L6
[17] = read-out: IC50 TC-I, Table 3A, weighted means of two or more independent trials
[18] = read-out: IC50 L. amaz. (footnote c: value obtained from one trial)
[19] = Table 3A, estimated from highest L6 dose tested where no L6 IC50

Compound	Selectivity L6/Tb ([1]; Table 1)	IC50 ([1]; Trypanosoma brucei, Table 1)	IC50 [2, 7]	Selectivity L6/Tc [3, 10]	Selectivity L6/Tc [3, 11]	IC50 [3, 12]	IC50 [3, 13]	IC50 ([4]; read-out: IC50 L. amaz.)	Selectivity L6/La ([4]; Table 1)	Selectivity L6/La [4, 15]	melting point	IC50 [2, 16]	IC50 [3, 17]	also measured
O=C1/C(=C/c2cc3ccccc3o2)Oc2ccccc21 [Aurone 3002, (Z)-2-(benzofuran-2-ylmethylene)benzofuran-3(2H)-one]	>4.96	20.2 µM	> 100 µM	>15.53	>15.53	6.44 µM	6.44 µM	6.48 µM	>15.43	>15.43	145 to 150 °C			Selectivity L6/Tb [1, 5]: >4.96; Selectivity L6/Tb [1, 6]: >4.96; IC50 [2, 8]: > 100 µM; IC50 [2, 9]: > 100 µM; Selectivity L6/Tc-I [3]: >15.53; IC50 [3, 14]: 6.44 µM
O=C1/C(=C/c2cc(Br)ccc2Br)Oc2ccccc21 [Aurone 3003, (Z)-2-(2,5-dibromobenzylidene)benzofuran-3(2H)-one]		> 50 µM	> 100 µM			> 50 µM		16 µM	>6.24		181 to 182 °C	> 100 µM	> 50 µM	
O=C1/C(=C/c2ccsc2)Oc2ccccc21 [Aurone 3004, (Z)-2-(thiophen-3-ylmethylene)benzofuran-3(2H)-one]	>2.58	38.7 µM	> 100 µM	>11.09	>11.09	9.02 µM	9.02 µM	24.2 µM	>4.13	>4.13	125 to 126 °C			activity against T. brucei [1]: moderate activity; Selectivity L6/Tb [1, 5]: >2.58; Selectivity L6/Tb [1, 6]: >2.58; IC50 [2, 8]: > 100 µM; IC50 [2, 9]: > 100 µM; Selectivity L6/Tc-I [3]: >11.09; IC50 [3, 14]: 9.02 µM; IC50 ([3]; read-out: T. cruzi IC50 dose): 9.02 µM
O=C1/C(=C/c2ccoc2)Oc2ccccc21 [Aurone 3005, (Z)-2-(furan-3-ylmethylene)benzofuran-3(2H)-one]	>2.39	41.9 µM	> 100 µM	>13.39	>13.39	7.47 µM	7.47 µM	42.7 µM	>2.34	>2.34	111 to 112 °C			Selectivity L6/Tb [1, 5]: >2.39; Selectivity L6/Tb [1, 6]: >2.39; IC50 [2, 8]: > 100 µM; IC50 [2, 9]: > 100 µM; Selectivity L6/Tc-I [3]: >13.39; IC50 [3, 14]: 7.47 µM
CC(=O)Nc1ccc(/C=C2\Oc3ccccc3C2=O)cc1 [Aurone 3006, (Z)-N-(4-((3-oxobenzofuran-2(3H)-ylidene)methyl)phenyl)acetamide]		> 50 µM	> 100 µM			> 50 µM		12.5 µM	>7.99		260 to 270 °C			IC50 ([2]; Rattus norvegicus, Table 3C, weighted means of two or more independent trials, read-out: IC50 L6): > 100 µM; IC50 ([3]; read-out: IC50 TC-I, Table 3C, intracellular T. cruzi, weighted means of two or more independent trials): > 50 µM
CC(C)(C)c1ccc(/C=C2\Oc3ccccc3C2=O)cc1 [Aurone 3008, (Z)-2-(4-(tert-butyl)benzylidene)benzofuran-3(2H)-one]		> 50 µM	99.3 µM			> 50 µM	> 50 µM	3.57 µM	27.81	27.81	87 to 90 °C	99.3 µM	12.5 µM	IC50 ([1]; Table 2): > 50 µM; Selectivity L6/TC-I [3]: 7.94
CCCCc1ccc(/C=C2\Oc3ccccc3C2=O)cc1 [Aurone 3009, (Z)-2-(4-butylbenzylidene)benzofuran-3(2H)-one]		> 50 µM	35 µM			> 50 µM	> 50 µM	2.36 µM	14.84	14.84	80 to 81 °C	35 µM	7.99 µM	IC50 ([1]; Table 2): > 50 µM; Selectivity L6/TC-I [3]: 4.38
O=C1/C(=C/c2ccc(Br)cn2)Oc2ccccc21 [Aurone 3011, (Z)-2-((5-bromopyridin-2-yl)methylene)benzofuran-3(2H)-one]		> 50 µM	> 100 µM	>3.04	>3.04	32.9 µM	32.9 µM	2.61 µM	>38.31	>38.31	192 to 193 °C			IC50 ([1]; Table 2): > 50 µM; IC50 [2, 8]: > 100 µM; IC50 [2, 9]: > 100 µM; Selectivity L6/Tc-I [3]: >3.04; IC50 [3, 14]: 32.9 µM
COc1cccc(/C=C2\Oc3ccc(C)cc3C2=O)c1O [Aurone 4003, (Z)-2-(2-hydroxy-3-methoxybenzylidene)-5-methylbenzofuran-3(2H)-one]	>3.61	27.7 µM	> 100 µM			> 50 µM		13.4 µM	>7.45		134 to 137 °C			
COc1ccc2c(c1)O/C(=C\c1cccs1)C2=O [Aurone 5001, (Z)-6-methoxy-2-(thiophen-2-ylmethylene)benzofuran-3(2H)-one]		> 50 µM	> 100 µM			> 50 µM		21.1 µM	>4.73		99 to 103 °C			
COc1ccc2c(c1)O/C(=C\c1ccc(C)cc1)C2=O [Aurone 5002, (Z)-6-methoxy-2-(4-methylbenzylidene)benzofuran-3(2H)-one]		40.7 µM	183 µM			> 50 µM	> 50 µM	10.5 µM			115 to 122 °C			
COc1ccc2c(c1)O/C(=C\c1ccc(Br)cc1)C2=O [Aurone 5005, (Z)-2-(4-bromobenzylidene)-6-methoxybenzofuran-3(2H)-one]		47.2 µM	181 µM			> 50 µM	> 50 µM	14.3 µM			153 °C			
COc1ccc2c(c1)O/C(=C\c1ccc(C#N)cc1)C2=O [Aurone 5006, (Z)-4-((6-methoxy-3-oxobenzofuran-2(3H)-ylidene)methyl)benzonitrile]		30.3 µM	213 µM			> 50 µM	> 50 µM	4.79 µM			180 to 181 °C			
Cc1ccc(/C=C2\Oc3ccc(Br)cc3C2=O)cc1 [Aurone 6000, (Z)-5-bromo-2-(4-methylbenzylidene)benzofuran-3(2H)-one]		> 50 µM	> 100 µM			> 50 µM	> 50 µM	8.43 µM			115 to 120 °C			
CCc1ccc(/C=C2\Oc3ccccc3C2=O)cc1 [Aurone 8001, (Z)-2-(4-ethylbenzylidene)benzofuran-3(2H)-one]		46.5 µM	> 100 µM			11.4 µM	11.4 µM	6.42 µM			71 to 74 °C			IC50 [4, 18]: 6.42 µM
O=C1/C(=C/c2ccccc2F)Oc2ccccc21 [Aurone 9004, (Z)-2-(2-fluorobenzylidene)benzofuran-3(2H)-one]		> 50 µM	176 µM	8.00	8.00	22 µM	22 µM	10.5 µM	16.83	16.83	76 to 81 °C	176 µM	22 µM	IC50 ([1]; Table 2): > 50 µM; Selectivity L6/TC-I [3]: 8.00; IC50 [4, 18]: 10.5 µM
O=C1/C(=C/c2ccccc2Br)Oc2ccccc21 [Aurone 9006, (Z)-2-(2-bromobenzylidene)benzofuran-3(2H)-one]	7.98	28.3 µM	226 µM	10.61	10.61	21.3 µM	21.3 µM	< 1 µM	>226.08	>226.08	134 to 140 °C	226 µM	21.3 µM	Selectivity L6/Tb [1, 5]: 7.98; Selectivity L6/Tb [1, 19]: 7.98; Selectivity L6/TC-I [3]: 10.61; IC50 [4, 18]: < 1 µM
O=C1/C(=C/c2ccccc2Cl)Oc2ccccc21 [Aurone 9007, (Z)-2-(2-chlorobenzylidene)benzofuran-3(2H)-one]	21.02	11.3 µM	238 µM	18.72	18.72	12.7 µM	12.7 µM	17.5 µM	13.55	13.55	118 to 126 °C	238 µM	12.7 µM	Selectivity L6/Tb [1, 5]: 21.02; Selectivity L6/Tb [1, 19]: 21.02; Selectivity L6/TC-I [3]: 18.72; IC50 [4, 18]: 17.5 µM
